Test results published in PubChem BioAssay (NCI).
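Assay format: 96-well plates, 48-hour exposure. The concentration for full growth arrest is given as TGI.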

Tests used:
Assay in all cases: inhibition of tumour cell growth, NCI panel, 48 h
COLO 205 colon = tested on: COLO 205 colon
HCT-15 colon = tested on: HCT-15 colon
HL-60(TB) leukemia = tested on: HL-60(TB) leukemia
K-562 leukemia = tested on: K-562 leukemia
MDA-MB-435 = tested on: MDA-MB-435
NCI-H226 lung = tested on: NCI-H226 lung
NCI-H23 lung = tested on: NCI-H23 lung
SF-295 CNS = tested on: SF-295 CNS
SN12C renal = tested on: SN12C renal
A498 renal = tested on: A498 renal

Compound | TGI (COLO 205 colon) | TGI (HCT-15 colon) | TGI (HL-60(TB) leukemia) | TGI (K-562 leukemia) | TGI (MDA-MB-435) | TGI (NCI-H226 lung) | TGI (NCI-H23 lung) | TGI (SF-295 CNS) | TGI (SN12C renal) | TGI (A498 renal)
C/C(=N/O)c1cccc(Nc2nc3ccccc3c3[nH]c4ccccc4c23)c1 | 7.1 µM | 10.6 µM | 8.23 µM | 10.6 µM | 7.52 µM | 21 µM | 11.8 µM | 5.58 µM | 13.4 µM | –
COc1cccc2c1C1=CC(=O)CCC1C(C)(C)O2 (stereo unspecified) | > 100 µM | > 100 µM | > 100 µM | > 100 µM | – | > 100 µM | > 100 µM | > 100 µM | > 100 µM | > 100 µM
COc1ccc(CNc2nc3ccccc3nc2-c2cccs2)cc1 | > 100 µM | > 100 µM | > 100 µM | > 100 µM | > 100 µM | > 100 µM | > 100 µM | > 100 µM | – | > 100 µM
O=C1CSC2(CCN(CCCN3c4ccccc4Sc4ccc(Cl)cc43)CC2)N1 | 22.5 µM | 20.8 µM | – | 16.8 µM | 23.5 µM | 40.7 µM | 24.1 µM | 22 µM | 22.7 µM | 31 µM
CC(Nc1cc(Cl)cc(Cl)c1)c1ccncc1 (stereo unspecified) | 29.8 µM | > 100 µM | – | > 100 µM | 47.5 µM | 25 µM | 71.1 µM | 43.4 µM | – | 88.8 µM
CC(C)n1c(=O)c2nn3c(=O)n(C(C)C)c(=O)c3nn2c1=O | > 100 µM | > 100 µM | > 100 µM | – | > 100 µM | > 100 µM | > 100 µM | > 100 µM | > 100 µM | > 100 µM
Cc1ccc(-n2c(C)nc3c2C(=O)c2ccccc2C3=O)cc1 | 41.8 µM | > 100 µM | > 100 µM | > 100 µM | – | > 100 µM | > 100 µM | > 100 µM | > 100 µM | –
CC(=O)Nc1ccc(Nc2nc(=O)[nH]c(=O)[nH]2)cc1 | > 100 µM | > 100 µM | > 100 µM | – | > 100 µM | > 100 µM | > 100 µM | > 100 µM | > 100 µM | > 100 µM
COc1cccc(-c2cc(=O)c3cc(C)cnc3[nH]2)c1 | 1.39 µM | – | 0.617 µM | > 100 µM | 0.0686 µM | 0.339 µM | > 100 µM | > 100 µM | > 33.9 µM | > 100 µM
NC(=O)c1ccccc1NC(=O)C(=O)C(c1cnc2ccc([N+](=O)[O-])cc2n1)[N+](=O)[O-] (stereo unspecified) | – | > 100 µM | > 100 µM | > 100 µM | > 100 µM | > 100 µM | > 100 µM | > 100 µM | > 100 µM | > 100 µM
Cn1c(N/N=C/c2ccc(Cl)cc2)nc(-c2ccc(Cl)cc2)c(C#N)c1=O | > 100 µM | > 100 µM | > 100 µM | > 100 µM | > 100 µM | – | 38.6 µM | 41.5 µM | > 100 µM | 93.5 µM
CC(=O)O[C@H]1/C(=C/c2ccc(N(C)C)cc2)C[C@H]2[C@@H]3CC=C4C[C@@H](N5CCCC5)CC[C@]4(C)[C@H]3CC[C@]12C | > 100 µM | > 100 µM | > 100 µM | > 100 µM | – | > 100 µM | > 100 µM | > 100 µM | > 100 µM | > 100 µM
